In one assay the target is T1, Protein RecA (Mycobacterium tuberculosis, UniProt P9WHJ3).
T1 sequence (P9WHJ3 whole entry): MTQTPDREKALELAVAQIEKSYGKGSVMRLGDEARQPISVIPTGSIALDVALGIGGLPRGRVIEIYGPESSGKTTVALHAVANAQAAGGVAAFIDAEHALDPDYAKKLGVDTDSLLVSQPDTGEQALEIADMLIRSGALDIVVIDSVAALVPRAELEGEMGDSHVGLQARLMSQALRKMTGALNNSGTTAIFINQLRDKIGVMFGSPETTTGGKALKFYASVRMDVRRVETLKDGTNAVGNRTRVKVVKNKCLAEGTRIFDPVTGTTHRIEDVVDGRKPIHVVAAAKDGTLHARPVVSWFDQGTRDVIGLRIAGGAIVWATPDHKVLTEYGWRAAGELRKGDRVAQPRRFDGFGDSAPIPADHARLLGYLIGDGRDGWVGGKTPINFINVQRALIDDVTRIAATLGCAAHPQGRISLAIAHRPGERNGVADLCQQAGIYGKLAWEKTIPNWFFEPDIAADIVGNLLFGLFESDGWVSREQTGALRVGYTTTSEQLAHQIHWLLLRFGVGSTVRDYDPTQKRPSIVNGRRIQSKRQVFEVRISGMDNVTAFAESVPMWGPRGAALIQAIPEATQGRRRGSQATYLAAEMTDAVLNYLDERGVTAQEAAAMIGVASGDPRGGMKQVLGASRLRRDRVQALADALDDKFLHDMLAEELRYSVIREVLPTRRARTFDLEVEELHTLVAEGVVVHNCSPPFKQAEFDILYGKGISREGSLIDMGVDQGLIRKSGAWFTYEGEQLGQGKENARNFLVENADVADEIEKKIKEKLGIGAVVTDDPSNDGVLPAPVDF
Put plainly: Fluorescence Cell-Free Homogeneous Dose Retest to Identify Inhibitors of RecA-Intein Splicing Activity. [Related pubchem assays (depositor defined):AID2097, AID2223, AID489010, AID492950]. Format: functional.

The target of assay [1] is G-protein coupled receptor 55 (Homo sapiens, UniProt Q9Y2T6). Put plainly: GPR55 antagonists, SAR follow-up, counter-screen for GPR35 antagonist project, imaging, image-based (AID 2397). The class given is functional. Background: The purpose of a counterscreen is to sort out artefacts and off-target activity.
The target in assay [2] is Tyrosine-protein phosphatase non-receptor type 12 (Homo sapiens, UniProt Q05209). Put plainly: SAR Selectivity Analysis of small molecule inhibitors of PEST using pCAP in a fluorescence assay. [Related pubchem assays (depositor defined):AID1779, AID1784, AID2135]. The class given is functional.
In assay [3] the target is T2, Tyrosine-protein phosphatase non-receptor type 22 (Homo sapiens, UniProt Q9Y2R2).
T2 sequence (Q9Y2R2 whole entry): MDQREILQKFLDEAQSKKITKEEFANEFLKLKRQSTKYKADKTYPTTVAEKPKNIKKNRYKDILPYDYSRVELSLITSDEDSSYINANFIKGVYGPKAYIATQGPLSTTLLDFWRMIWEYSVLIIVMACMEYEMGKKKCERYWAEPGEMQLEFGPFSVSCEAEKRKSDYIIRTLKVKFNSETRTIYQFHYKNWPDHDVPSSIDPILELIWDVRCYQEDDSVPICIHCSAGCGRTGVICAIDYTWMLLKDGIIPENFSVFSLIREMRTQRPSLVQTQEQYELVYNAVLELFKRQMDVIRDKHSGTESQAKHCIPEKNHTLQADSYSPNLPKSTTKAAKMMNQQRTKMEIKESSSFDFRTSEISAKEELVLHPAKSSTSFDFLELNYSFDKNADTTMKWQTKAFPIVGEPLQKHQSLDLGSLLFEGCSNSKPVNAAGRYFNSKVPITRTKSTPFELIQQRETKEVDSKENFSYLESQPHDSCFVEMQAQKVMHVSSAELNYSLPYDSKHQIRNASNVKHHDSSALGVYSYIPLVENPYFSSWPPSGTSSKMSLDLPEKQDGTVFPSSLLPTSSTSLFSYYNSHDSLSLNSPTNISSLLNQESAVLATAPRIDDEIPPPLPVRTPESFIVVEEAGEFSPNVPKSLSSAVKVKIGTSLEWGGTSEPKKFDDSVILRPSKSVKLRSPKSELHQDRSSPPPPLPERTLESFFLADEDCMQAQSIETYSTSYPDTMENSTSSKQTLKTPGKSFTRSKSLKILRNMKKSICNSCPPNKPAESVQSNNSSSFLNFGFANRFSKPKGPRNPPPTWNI
Put plainly: SAR LYP1 Fluorescent Assay using OMFP substrate for In Vitro dose response studies - Set 3. [Related pubchem assays (depositor defined):AID1779, AID1784, AID2140, AID2686]. Format: functional.

The target in assay [4] is T3, G-protein coupled receptor 35 (Homo sapiens, UniProt Q9HC97). Put plainly: GPR35 antagonists blocking zaprinast-driven arrestin recruitment, primary screen, imaging, U2OS, beta-arrestin-GFP, zaprinast agonist (AID 2058).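 Further: antagonist potency meaning inhibition of agonist-induced arrestin redistribution.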 The class given is functional.
Assay [5] has as its target T3, G-protein coupled receptor 35. Put plainly: SAR Analysis for the identification of Selective Antagonists of ERK1/2 Activity in GPR35-Overexpressing U2OS Cells. [Related pubchem assays: 2079, 2058 ]. Format: functional, cell-based.
Assay [6] has as its target T2, Tyrosine-protein phosphatase non-receptor type 22. Put plainly: LYP (PTPN22) phosphatase inhibitor potency, SAR follow-up, biochemical, pCAP fluorogenic substrate, fluorescence, set 3 (AID 449727). The class given is functional.
Assay [7] has as its target T4, Replicative DNA helicase DnaB (Mycobacterium tuberculosis, UniProt P9WMR3).
T4 sequence (P9WMR3 whole entry): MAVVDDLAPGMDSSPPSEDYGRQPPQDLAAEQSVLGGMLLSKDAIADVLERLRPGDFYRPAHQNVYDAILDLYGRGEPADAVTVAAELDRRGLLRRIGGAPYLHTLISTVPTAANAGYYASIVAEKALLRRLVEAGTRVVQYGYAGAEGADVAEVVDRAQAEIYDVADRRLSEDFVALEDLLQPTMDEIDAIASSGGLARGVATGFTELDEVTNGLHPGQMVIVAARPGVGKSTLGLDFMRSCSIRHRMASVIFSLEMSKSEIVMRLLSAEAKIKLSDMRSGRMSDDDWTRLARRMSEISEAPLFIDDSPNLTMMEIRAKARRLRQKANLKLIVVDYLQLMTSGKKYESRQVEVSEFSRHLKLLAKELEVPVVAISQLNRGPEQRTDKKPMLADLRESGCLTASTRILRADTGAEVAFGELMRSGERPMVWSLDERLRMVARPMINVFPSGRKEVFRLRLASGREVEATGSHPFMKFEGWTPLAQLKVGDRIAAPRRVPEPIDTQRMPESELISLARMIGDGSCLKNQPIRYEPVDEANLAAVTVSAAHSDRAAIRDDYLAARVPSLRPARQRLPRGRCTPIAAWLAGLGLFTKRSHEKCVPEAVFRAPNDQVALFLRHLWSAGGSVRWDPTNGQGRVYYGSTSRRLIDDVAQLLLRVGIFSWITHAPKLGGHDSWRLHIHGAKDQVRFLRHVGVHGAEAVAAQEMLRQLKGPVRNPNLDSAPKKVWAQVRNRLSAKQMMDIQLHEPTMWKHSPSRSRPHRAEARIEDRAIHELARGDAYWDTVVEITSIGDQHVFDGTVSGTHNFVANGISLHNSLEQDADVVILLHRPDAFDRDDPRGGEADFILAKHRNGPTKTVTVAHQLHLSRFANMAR
Put plainly: DnaB intein splicing inhibitors, dose response, biochemical, cell-free fluorescence (AID 449749). The class given is functional.

The target in a further assay is Trypsin (Sus scrofa, UniProt P00761). Put plainly: porcine trypsin inhibitors, dose response, selectivity assay for Rce1 protease inhibitor project, biochemical, quenched peptide fluorescence, cherry-pick (AID 488789).
The target in a further assay is T5, CAAX prenyl protease 2 (Saccharomyces cerevisiae S288c, UniProt Q03530).
T5 sequence (Q03530 whole entry): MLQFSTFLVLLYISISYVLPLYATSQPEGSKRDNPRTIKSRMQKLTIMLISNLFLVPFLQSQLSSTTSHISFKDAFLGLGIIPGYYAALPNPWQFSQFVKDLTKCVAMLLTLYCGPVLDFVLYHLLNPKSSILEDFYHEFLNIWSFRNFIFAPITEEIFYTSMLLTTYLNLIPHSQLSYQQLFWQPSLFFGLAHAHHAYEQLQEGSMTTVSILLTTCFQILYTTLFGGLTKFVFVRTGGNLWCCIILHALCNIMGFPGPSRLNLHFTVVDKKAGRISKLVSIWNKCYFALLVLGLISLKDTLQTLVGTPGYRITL
The class given is biochemical.

The target of the next assay is CAAX prenyl protease 1 (Saccharomyces cerevisiae S288c, UniProt P47154). Put plainly: Ste24 protease inhibitors, dose response, biochemical, S. cerevisiae, plate reader, cherry-pick (AID 488815).
The target of assay [8] is DNA dC->dU-editing enzyme APOBEC-3A (Homo sapiens, UniProt P31941). Put plainly: APOBEC3A DNA deaminase inhibitors, dose response, biochemical (AID 504722). The class given is functional.
The target in assay [9] is DNA dC->dU-editing enzyme APOBEC-3G (Homo sapiens, UniProt Q9HC16). Put plainly: Dose Response confirmation of small molecule APOBEC3G DNA Deaminase Inhibitors via a fluorescence-based single-stranded DNA deaminase assay. [Related pubchem assays (depositor defined):AID493012, AID493028]. The class given is functional.
For assay [10], the target named is T6, Mannose-6-phosphate isomerase (Homo sapiens, UniProt P34949).
T6 sequence (P34949 whole entry): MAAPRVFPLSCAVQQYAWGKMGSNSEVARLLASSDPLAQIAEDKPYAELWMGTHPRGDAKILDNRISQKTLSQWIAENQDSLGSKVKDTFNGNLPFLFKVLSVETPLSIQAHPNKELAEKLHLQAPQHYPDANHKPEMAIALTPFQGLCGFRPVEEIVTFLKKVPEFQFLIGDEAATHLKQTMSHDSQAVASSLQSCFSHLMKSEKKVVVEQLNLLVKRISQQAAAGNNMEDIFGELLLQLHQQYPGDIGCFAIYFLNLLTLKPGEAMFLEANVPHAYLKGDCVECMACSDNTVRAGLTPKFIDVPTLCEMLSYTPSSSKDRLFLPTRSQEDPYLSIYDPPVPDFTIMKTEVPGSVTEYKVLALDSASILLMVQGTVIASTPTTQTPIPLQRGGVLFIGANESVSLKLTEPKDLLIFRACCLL
Put plainly: PMI enzyme inhibitors, confirmation, biochemical, fluorescence intensity (AID 1535).

Another assay has as its target Phosphomannomutase 2 (Homo sapiens, UniProt O15305). Put plainly: Counter screen SAR assay for PMM2 inhibitors via a fluorescence intensity assay. [Related pubchem assays (depositor defined):AID1545, AID1574].

Calls of active or inactive are those of the source.

T3 sequence (Q9HC97 whole entry): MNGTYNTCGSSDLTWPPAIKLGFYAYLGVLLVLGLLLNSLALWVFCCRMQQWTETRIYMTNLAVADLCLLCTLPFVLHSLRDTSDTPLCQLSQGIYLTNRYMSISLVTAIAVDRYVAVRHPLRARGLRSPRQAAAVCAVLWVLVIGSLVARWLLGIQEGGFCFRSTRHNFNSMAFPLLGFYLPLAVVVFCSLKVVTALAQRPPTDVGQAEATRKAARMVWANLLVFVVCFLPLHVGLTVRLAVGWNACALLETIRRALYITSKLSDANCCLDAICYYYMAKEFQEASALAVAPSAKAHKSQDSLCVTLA
Sequence of Phosphomannomutase 2 (O15305 whole entry): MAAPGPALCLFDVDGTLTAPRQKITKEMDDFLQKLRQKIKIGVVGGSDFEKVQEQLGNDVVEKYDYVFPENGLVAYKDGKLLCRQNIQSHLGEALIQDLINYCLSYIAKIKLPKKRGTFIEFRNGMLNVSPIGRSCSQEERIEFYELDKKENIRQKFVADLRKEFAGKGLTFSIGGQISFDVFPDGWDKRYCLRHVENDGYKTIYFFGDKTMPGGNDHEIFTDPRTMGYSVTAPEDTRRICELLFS
Sequence of Tyrosine-protein phosphatase non-receptor type 12 (Q05209 whole entry): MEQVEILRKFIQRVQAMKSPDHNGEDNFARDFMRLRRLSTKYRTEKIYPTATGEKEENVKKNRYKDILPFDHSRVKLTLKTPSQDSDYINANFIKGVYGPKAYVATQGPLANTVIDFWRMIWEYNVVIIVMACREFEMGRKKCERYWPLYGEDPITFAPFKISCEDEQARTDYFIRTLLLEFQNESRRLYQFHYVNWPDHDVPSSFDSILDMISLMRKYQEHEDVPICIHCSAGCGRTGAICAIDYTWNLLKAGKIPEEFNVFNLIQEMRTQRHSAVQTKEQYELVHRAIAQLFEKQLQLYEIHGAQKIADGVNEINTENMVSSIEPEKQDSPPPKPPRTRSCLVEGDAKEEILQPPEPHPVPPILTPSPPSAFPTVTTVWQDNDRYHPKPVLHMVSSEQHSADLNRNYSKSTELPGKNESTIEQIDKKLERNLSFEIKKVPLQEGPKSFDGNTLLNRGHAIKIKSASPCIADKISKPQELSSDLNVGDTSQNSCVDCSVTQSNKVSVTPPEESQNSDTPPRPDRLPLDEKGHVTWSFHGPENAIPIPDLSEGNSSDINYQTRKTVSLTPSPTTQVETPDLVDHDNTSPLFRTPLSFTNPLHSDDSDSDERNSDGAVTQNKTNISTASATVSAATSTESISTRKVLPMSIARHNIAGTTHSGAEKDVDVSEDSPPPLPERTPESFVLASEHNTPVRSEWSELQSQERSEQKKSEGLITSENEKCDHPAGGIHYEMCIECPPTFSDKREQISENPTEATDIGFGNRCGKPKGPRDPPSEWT
Sequence of DNA dC->dU-editing enzyme APOBEC-3G (Q9HC16 whole entry): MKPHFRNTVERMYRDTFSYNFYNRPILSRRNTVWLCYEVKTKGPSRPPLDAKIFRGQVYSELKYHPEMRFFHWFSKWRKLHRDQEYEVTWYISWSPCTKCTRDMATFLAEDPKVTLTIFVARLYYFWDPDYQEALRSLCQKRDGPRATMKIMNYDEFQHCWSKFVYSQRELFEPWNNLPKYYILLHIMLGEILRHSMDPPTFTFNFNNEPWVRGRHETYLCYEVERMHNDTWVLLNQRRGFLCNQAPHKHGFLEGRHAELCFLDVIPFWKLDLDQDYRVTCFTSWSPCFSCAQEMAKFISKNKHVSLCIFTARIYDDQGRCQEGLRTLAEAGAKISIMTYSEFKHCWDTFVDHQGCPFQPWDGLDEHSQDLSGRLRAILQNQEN
Sequence of CAAX prenyl protease 1 (P47154 whole entry): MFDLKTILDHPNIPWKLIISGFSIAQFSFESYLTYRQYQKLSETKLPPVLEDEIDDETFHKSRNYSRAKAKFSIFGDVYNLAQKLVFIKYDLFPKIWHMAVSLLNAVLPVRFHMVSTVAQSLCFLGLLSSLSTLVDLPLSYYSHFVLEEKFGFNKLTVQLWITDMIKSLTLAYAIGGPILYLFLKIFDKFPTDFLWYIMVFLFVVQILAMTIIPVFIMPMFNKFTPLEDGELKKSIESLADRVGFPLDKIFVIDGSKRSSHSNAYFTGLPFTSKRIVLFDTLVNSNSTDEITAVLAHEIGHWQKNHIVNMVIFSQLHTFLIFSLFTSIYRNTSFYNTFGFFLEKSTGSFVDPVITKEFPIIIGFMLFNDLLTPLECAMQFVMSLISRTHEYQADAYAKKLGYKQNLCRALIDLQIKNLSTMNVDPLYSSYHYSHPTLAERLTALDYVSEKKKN
Sequence of DNA dC->dU-editing enzyme APOBEC-3A (P31941 whole entry): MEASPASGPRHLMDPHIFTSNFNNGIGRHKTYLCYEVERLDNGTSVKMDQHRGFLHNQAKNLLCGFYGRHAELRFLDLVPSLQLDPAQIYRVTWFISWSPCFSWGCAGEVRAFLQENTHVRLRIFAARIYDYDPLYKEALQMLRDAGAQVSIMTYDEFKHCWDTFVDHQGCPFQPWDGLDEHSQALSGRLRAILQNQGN
Sequence of G-protein coupled receptor 55 (Q9Y2T6 whole entry): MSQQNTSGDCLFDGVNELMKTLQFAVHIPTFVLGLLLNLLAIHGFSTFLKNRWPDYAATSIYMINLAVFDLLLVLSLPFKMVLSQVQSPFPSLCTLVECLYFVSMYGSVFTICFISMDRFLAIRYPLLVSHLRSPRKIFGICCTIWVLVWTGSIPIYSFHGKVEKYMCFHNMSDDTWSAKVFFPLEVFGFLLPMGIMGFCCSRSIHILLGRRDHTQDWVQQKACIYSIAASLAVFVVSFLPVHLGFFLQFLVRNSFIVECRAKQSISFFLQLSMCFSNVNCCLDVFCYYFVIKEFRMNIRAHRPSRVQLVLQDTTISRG
Sequence of Trypsin (P00761 whole entry): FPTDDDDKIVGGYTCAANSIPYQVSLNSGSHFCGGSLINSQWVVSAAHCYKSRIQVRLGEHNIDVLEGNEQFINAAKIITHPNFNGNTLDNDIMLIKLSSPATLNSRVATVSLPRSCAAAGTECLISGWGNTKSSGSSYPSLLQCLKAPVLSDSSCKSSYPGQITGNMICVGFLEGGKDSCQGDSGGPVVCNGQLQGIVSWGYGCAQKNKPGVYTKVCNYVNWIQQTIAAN

On to `O=C(CCCN1C(=O)/C(=C/c2ccccc2)SC1=S)Nc1ccc(C(=O)O)c(O)c1`, for which the EC50 (in general, the concentration needed to bring the measured effect to its halfway point) on Protein RecA is 15.4 µM (active). In addition, the IC50 (usually the concentration that inhibits the measured activity by half) was > 32 µM (inactive) in assay [1]; 17.2 µM (active) in assay [2]; > 100 µM (inactive) in [3]; < 0.5 µM (active) in assay [4]; 2.67 µM (active) in [5]; 85 µM (active) in assay [6]. Further, in [7], the AC50 – broadly, the concentration at which the activity in the assay is half-maximal – is 12.3 µM (active).

For `CC(C)c1cc(=O)oc2c3c4c(cc12)CCCN4CCC3`, the AC50 on Trypsin was 24.1 µM (active); on CAAX prenyl protease 2, > 100 µM (inactive); on CAAX prenyl protease 1, 4 µM (active).

Consider `COc1ccc(OC)c(/N=c2\ssnc2Cl)c1`, for which the IC50 in assay [8] was > 100 µM (inactive); in assay [9], 15.4 µM (active); in assay [10], 4.35 µM (active); on Phosphomannomutase 2, > 100 µM (inactive).

`Cc1ccc(/N=c2\ssnc2Cl)cc1[N+](=O)[O-]`: the values for the IC50 (in [10]; on Phosphomannomutase 2) were 4.46 µM (active) and > 100 µM (inactive), respectively.

These data come from ChEMBL document CHEMBL1201862, “PubChem BioAssay data set” (2004).
